In ChEMBL document CHEMBL1132840, “Benzylidene ketal derivatives as M2 muscarinic receptor antagonists” (Bioorg Med Chem Lett, 2000) one finds Ki and Ratio data, which are given here for 20 compounds.

For assay [1], the target named is T1, Muscarinic acetylcholine receptor M2 (Homo sapiens, UniProt P08172).
T1 sequence (P08172 whole entry): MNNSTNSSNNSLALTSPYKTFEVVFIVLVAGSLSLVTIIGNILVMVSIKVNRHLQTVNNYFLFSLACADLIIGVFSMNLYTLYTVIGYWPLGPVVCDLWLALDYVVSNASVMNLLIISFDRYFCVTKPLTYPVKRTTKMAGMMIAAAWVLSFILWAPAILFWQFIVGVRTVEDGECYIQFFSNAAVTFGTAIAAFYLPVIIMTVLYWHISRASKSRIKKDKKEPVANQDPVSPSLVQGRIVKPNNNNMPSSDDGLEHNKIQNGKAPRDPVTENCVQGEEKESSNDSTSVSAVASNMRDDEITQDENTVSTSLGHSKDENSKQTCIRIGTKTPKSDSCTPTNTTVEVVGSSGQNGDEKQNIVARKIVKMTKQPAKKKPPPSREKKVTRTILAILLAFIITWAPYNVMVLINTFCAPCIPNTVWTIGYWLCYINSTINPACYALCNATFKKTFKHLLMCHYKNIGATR
In words: Binding affinity at human cloned acetylcholine receptor M2 in CHO cells. Type of assay: cell-based.

The target in assay [2] is Muscarinic acetylcholine receptors; M1 & M2 (Homo sapiens) (UniProt P11229+P08172). In words: Selectivity ratio for M1 muscarinic receptor compared to M2 muscarinic receptor. The format is protein assay.
Assay [3] addresses Muscarinic acetylcholine receptors; M2 & M3 (Homo sapiens) (UniProt P20309+P08172). In words: Selectivity ratio for M3 muscarinic receptor compared to M2 muscarinic receptor. The format is protein assay.

Sequence of Muscarinic acetylcholine receptors; M1 & M2 (Homo sapiens) (P11229 whole entry, looked up, one chain of several): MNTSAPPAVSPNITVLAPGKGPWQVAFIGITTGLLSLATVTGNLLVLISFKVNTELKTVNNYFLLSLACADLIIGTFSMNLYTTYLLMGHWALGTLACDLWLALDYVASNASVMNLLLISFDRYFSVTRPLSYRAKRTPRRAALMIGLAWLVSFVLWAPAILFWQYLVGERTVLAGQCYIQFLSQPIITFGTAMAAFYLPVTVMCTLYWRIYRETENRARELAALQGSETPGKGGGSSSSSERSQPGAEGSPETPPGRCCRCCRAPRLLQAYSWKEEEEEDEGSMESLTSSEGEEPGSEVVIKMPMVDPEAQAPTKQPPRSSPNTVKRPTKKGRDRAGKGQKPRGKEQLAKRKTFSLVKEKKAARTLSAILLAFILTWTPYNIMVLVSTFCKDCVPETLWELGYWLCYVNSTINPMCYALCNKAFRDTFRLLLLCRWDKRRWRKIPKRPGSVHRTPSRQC

For `CCCS(=O)(=O)N1CCC(N2CCC(C3(c4ccc(S(=O)(=O)c5ccc6c(c5)OCO6)cc4)O[C@H](C)[C@@H](C)O3)CC2)CC1`, the Ki (in general, the equilibrium dissociation constant of an inhibitor or competing ligand from its target) in assay [1] is 1.22 nM. The Ratio in assay [2] turned out to be 8.7; in assay [3], 46.1.

In assay [1], `CCOC(=O)N1CCC(N2CCC(C3(c4ccc(S(=O)(=O)c5ccc(OC)cc5)cc4)OCCCO3)CC2)CC1` returned a Ki of 0.72 nM. Further, the Ratio is 21 in assay [2] and 14.4 in assay [3].

In assay [1], `CCOC(=O)N1CCC(N2CCC(C3(c4ccc(S(=O)(=O)c5ccc(OC)cc5)cc4)SCCS3)CC2)CC1` showed an inhibition constant Ki of 0.11 nM. Further, the Ratio in assay [2] is 22.5; in assay [3] it was 3.

Turning to `CCOC(=O)N1CCC(N2CCC(C3(c4ccc(S(=O)(=O)c5ccc6c(c5)OCO6)cc4)O[C@H](C)[C@@H](C)O3)CC2)CC1`, in assay [1], the inhibition constant Ki was determined as 0.03 nM. For the same compound, the Ratio was 21.7 in assay [2] and 46 in assay [3].

In assay [1], `CCCS(=O)(=O)N1CCC(N2CCC(C3(c4ccc([S+]([O-])c5ccc6c(c5)OCO6)cc4)CCCO3)CC2)CC1` (centres undefined) registered a Ki of 12.1 nM. In addition, the figures for the Ratio in assay [2] and in assay [3] were 0.49 and 0.5, respectively.

Take `CCCS(=O)(=O)N1CCC(N2CCC(C3(c4ccc(S(=O)(=O)c5ccc6c(c5)OCO6)cc4)SCCS3)CC2)CC1`: the affinity in assay [1], expressed as Ki, was 0.031 nM. The Ratio came to 62.6 in assay [2] and 57.4 in assay [3].

`CCOC(=O)N1CCC(N2CCC(C(=O)c3ccc(S(=O)(=O)c4ccc5c(c4)OCO5)cc3)CC2)CC1` showed a Ki in assay [1] of 0.13 nM. Besides, the Ratio in assay [2] was 47.6; in assay [3] it was 7.5.

In assay [1], `CCCS(=O)(=O)N1CCC(N2CCC(C3(c4ccc([S+]([O-])c5ccc6c(c5)OCO6)cc4)O[C@H](C)[C@@H](C)O3)CC2)CC1` (some centres undefined) displayed a Ki of 9.09 nM. Moreover, the Ratio was 7.5 in assay [2] and 12.9 in assay [3].

With `CCCS(=O)(=O)N1CCC(N2CCC(C3(c4ccc(S(=O)(=O)c5ccc6c(c5)OCO6)cc4)OCCO3)CC2)CC1`, the Ratio is 102 in assay [2] and 93 in assay [3].

`CCOC(=O)N1CCC(N2CCC(C(=O)c3ccc(S(=O)(=O)c4ccc(OC)cc4)cc3)CC2)CC1` gave a Ki in assay [1] of 2.91 nM. In addition, the Ratio came to 26.8 in assay [2] and 10.2 in assay [3].

Take `CCOC(=O)N1CCC(N2CCC(C3(c4ccc(S(=O)(=O)c5ccc6c(c5)OCO6)cc4)OCCO3)CC2)CC1`: in assay [1], the Ki stood at 0.073 nM. Besides, the Ratio in assay [2] is 4.1; in assay [3], 1.3.

In the case of `CCOC(=O)N1CCC(N2CCC(C3(c4ccc(S(=O)(=O)c5ccc(OC)cc5)cc4)OCCO3)CC2)CC1`, the inhibitory constant (Ki) in assay [1] worked out at 0.16 nM. Moreover, the Ratio in assay [2] was determined as 28.3; in assay [3] it was 7.1.

As to `CCOC(=O)N1CCC(N2CCC(C3(c4ccc(S(=O)(=O)c5ccc(OC)cc5)cc4)SCCCS3)CC2)CC1`, the inhibition constant Ki in assay [1] was 14.3 nM. Moreover, the Ratio in assay [2] was determined as 4.4; in assay [3] it was 2.9.

Take `CCCS(=O)(=O)N1CCC(N2CCC(C3(c4ccc([S+]([O-])c5ccc6c(c5)OCO6)cc4)OCCO3)CC2)CC1` (centres undefined): the Ki in assay [1] stood at 0.823 nM. The Ratio in assay [2] amounted to 10.8; in assay [3], 10.

In turn, `C=C(c1ccc(S(=O)(=O)c2ccc(OC)cc2)cc1)C1CCN(C2CCN(C(=O)OCC)CC2)CC1` yielded a Ki in assay [1] of 0.07 nM. Besides, the Ratio in assay [2] is 68.3; in assay [3] it was 21.9.

Compound `CCCS(=O)(=O)N1CCC(N2CCC(C(=O)c3ccc([S+]([O-])c4ccc5c(c4)OCO5)cc3)CC2)CC1` (centres undefined) yielded an inhibition constant Ki in assay [1] of 34.8 nM. Also, the Ratio in assay [2] came to 4.6; in assay [3] it was 11.8.

For the compound `CCCS(=O)(=O)N1CCC(N2CCC(C3(c4ccc(S(=O)(=O)c5ccc6c(c5)OCO6)cc4)CCCO3)CC2)CC1` (centres undefined), the Ki in assay [1] was 5.07 nM. The Ratio is 0.22 in assay [2] and 0.24 in assay [3].

On to `CCOC(=O)N1CCC(N2CCC(C3(c4ccc(S(=O)(=O)c5ccc6c(c5)OCO6)cc4)O[C@@H](C)[C@H](C)O3)CC2)CC1`, for which affinity in assay [1] was put at a Ki of 1.82 nM. The Ratio in assay [2] is 10.2; in assay [3] it was 6.1.

`CCCS(=O)(=O)N1CCC(N2CCC(C(=O)c3ccc(S(=O)(=O)c4ccc5c(c4)OCO5)cc3)CC2)CC1` registered a Ki in assay [1] of 1.02 nM. The results for the Ratio in assay [2] and in assay [3] were 42.6 and 93.4, respectively.

Turning to `CCCS(=O)(=O)N1CCC(N2CCC(C3(c4ccc([S+]([O-])c5ccc6c(c5)OCO6)cc4)SCCS3)CC2)CC1` (centres undefined), the inhibition constant Ki in assay [1] stood at 0.82 nM. For the same compound, the Ratio in assay [2] came out at 10.7; in assay [3], 12.8.
